How the values were obtained:
[1] = test system: sodium ion channel in Neuro-2a cells; details: read-out: IC50, sodium ion channel blocking activity (veratridine-induced sodium influx), natural product; cited from earlier work
[2] = test system: human lung adenocarcinoma cells; details: cited from earlier work
[3] = test system: voltage-gated sodium channels (VGSCs); format: cell-based, mouse; details: veratridine-stimulated Na+ influx, murine cerebrocortical neurons

Structure (SMILES)	IC50 [1] [µM]	cytotoxicity (in words) [2]	fold more potent than the other analogues tested [3]
C[C@@H]1CCCC(=O)N(C)/C=C/CC[C@@H](C)C(=O)O[C@@H](C(C)(C)C)C1 [compound 1, (−)-palmyrolide A]	5.2	no appreciable cytotoxicity	3–9 fold
C[C@H]1CCCC(=O)N(C)/C=C/CC[C@H](C)C(=O)O[C@H](C(C)(C)C)C1 [compound 3, (+)-palmyrolide A]			3–9 fold
C[C@@H]1CCCC(=O)N(C)CCCC[C@@H](C)C(=O)O[C@@H](C(C)(C)C)C1 [compound 5, 17,18-Dihydropalmyrolide A]			3–9 fold
